Reference: patent US7453011B2, “Cycloalkyl substituted polyamines for cancer therapy and methods of synthesis therefor” (Progen Pharmaceuticals, Inc., priority 2001, dated 2008)
pIC50: −log10 of the molar value. Counter-ions that a name gives are not always drawn. Like-named read-outs stand apart in the source and are kept apart here.

Legend:
[1] = test system: DU145 human prostate cancer cell line; assay: MTT assay, DU145 cells; type: cell-based; details: read-out: ID50 DU145
Procedure: (§1) The polyamine analogs inhibited prostate cancer cell growth in vitro., as indicated in Table 1 and FIG. 1, FIG. 2, FIG. 3, FIG. 4, and FIG. 5. Tissue cultures and the MTT assay were performed as follows. Additional protocols for in vitro assays are disclosed in International Patent Applications WO 00/66175, WO 00/66528, WO 00/66587, WO 98/17624, Valasinas et al., J. Med. Chem. 44:390-403 (2001), and U.S. Provisional Patent Application Ser. No. 60/329,982 filed Oct. 16, 2001.
(§2) Tissue Culture. Cells were seeded into 75 cm^2 culture flasks with 15 ml of Eagle's minimal essential medium supplemented with 10% fetal calf serum and nonessential amino acids. The flasks were incubated in a humidified 95% air/5% CO2 atmosphere. The cells were grown for at least 24 h to ensure that they are in the log phase of growth and then they were treated with the polyamine analogs. Cells were harvested by treatment for 5 min with STV (saline A, 0.05% trypsin, 0.02% EDTA) at 37° C. The flasks were rapped on the lab bench, pipetted several times and aliquots of cell suspension were withdrawn and counted using a Coulter particle counter that has been standardized for counting each cell line using a hemacytometer.
(§3) MTT Assay: Trypsinized cell suspensions were diluted to seed 80 μl suspensions containing 500 cells in each well of a 96 well Corning microtiter plate and incubated overnight at 37° C. in a humidified incubator in 5% CO2. 20 μl of appropriately diluted stock solution of each drug (i.e., polyamine analog) were added to the middle 8 columns of cell suspension in the microtiter plates. Each drug concentration was run in quadruplicate. Outer columns of the plates were used for buffer controls. Cells were incubated with the drug for 6 days at 37° C. in 5% CO2/H2O atmosphere. 25 μl of 5 mg/ml solution of 3-(4,5-dimethylthiazol-2-yl)-2,5-diphenyl tetrazolium bromide (MTT) were added to each well and incubated for 4 hours at 37° C. in 5% CO2/H2O incubator. Cells were lysed by incubating overnight with 100 μl lysis buffer (500 ml of the lysis buffer contains: 100 g lauryl sulfate (SDS), 250 ml of N,N-dimethylformamide, and 2 ml of glacial acetic acid, made up to volume with water; pH 4.8).
(§4) The color was monitored at room temperature at 570 nm in a E-max Precision Microplate Reader (Molecular Devices Corporation, Sunnyvale, Calif.) and data was analyzed using cell survival software supplied by Molecular Devices Corporation.
(§5) The effects of SL-11218 and SL-11231 on the growth of human prostate tumor cell lines PC-3, DU-145, DuPro and LnCap and on human breast cancer cell lines MCF-7 and MDA-MB-231 in culture were determined by an MTT assay. The growth inhibitory effects were expressed as ID50 value which is defined as the drug concentration required to inhibit 50% cell growth after 5 days of treatment. The results are shown in Table 2; the numbers are the average of the values determined in at least three separate experiments. Both compounds are effective in inhibiting human prostate tumor cell growth in culture.

[2] = test system: DuPro human prostate cancer cell line; assay: MTT assay, DuPro cells; type: cell-based
Procedure: as §1, §2, §3, §4, §5

[3] = test system: PC-3 human prostate cancer cell line; assay: MTT assay, PC-3 cells; type: cell-based
Procedure: as §1, §2, §3, §4, §5

[4] = test system: Tsu-pr1 human prostate cancer cell line; assay: MTT assay, Tsu-pr1 cells; type: cell-based; details: Table 1, read-out: ID50 Tsu-pr1
Procedure: as §1
as §2, with “Cells were harvested by treatment for 5 min with STV (saline A, 0.05% trypsin, 0.02% EDTA) at 37° C.” left out, “hemacytometer. […]” for “hemacytometer.”
as §4

[5] = test system: LnCap human prostate cancer cell line; assay: MTT assay, LnCap cells; type: cell-based; details: read-out: ID50 LnCap
Procedure: as §1, §2
MTT Assay: Trypsinized cell suspensions were diluted to seed 80 μl suspensions containing 500 cells in each well of a 96 well Corning microtiter plate and incubated overnight at 37° C. in a humidified incubator in 5% CO2. […]
as §4
(§6) The effects of SL-11218 and SL-11231 on the growth of human prostate tumor cell lines PC-3, DU-145, DuPro and LnCap and on human breast cancer cell lines MCF-7 and MDA-MB-231 in culture were determined by an MTT assay. […] The results are shown in Table 2; the numbers are the average of the values determined in at least three separate experiments. […]

[6] = test system: Tsu-pr1-ADR human prostate cancer cell line; assay: MTT assay, Tsu-pr1-ADR cells; type: cell-based; details: Table 1, read-out: ID50 Tsu-pr1-ADR
Procedure: as §1
as §2, with “Cells were harvested by treatment for 5 min with STV (saline A, 0.05% trypsin, 0.02% EDTA) at 37° C.” left out, “hemacytometer. […]” for “hemacytometer.”
as §4

[7] = test system: L1210 leukemia or Lewis lung carcinoma; details: L1210 leukemia or Lewis lung carcinoma grafted in athymic nude mice; cited from earlier work
[8] = multiple injection (ip) schedules; cited from earlier work
[9] = test system: MCF-7 human breast cancer cell line; assay: MTT assay, MCF-7 cells; type: cell-based; details: for pIC50: Table 2, 5 days of treatment, average of at least three experiments, read-out: ID50 MCF-7
Procedure: as §3, §4, §5

[10] = test system: DuPro human prostate tumor cell line; assay: Colony forming efficiency (CFE) assay, DuPro; type: cell-based; details: FIG. 6
[11] = Body weight of DU-145 tumor-bearing nude mice under treatment; type: in vivo
Procedure: (§7) Male athymic nude mice were given s.c. injections of 1×10^6 DU-145 cells on Day 0. Beginning on Day 7, mice were treated i.p q1w×4 for 3 cycles with either saline, 50 mg/kg SL-11218 or 75 mg/kg SL-11218 (pH 7.4) i.p. at 10 ml/kg dosing volume. (Cage issues in the control cage were due to a water bottle leaking and lack of food for 24 hours.) The treatment was carried out once weekly for four weeks (q1w×4) in 3 cycles with a 4 week gap between each cycle. (i.e., cycle 1, administration on days 7, 14, 21, 28; cycle 2, administration on days 49, 56, 63, 70; cycle 3, administration on days 98, 105, 112, 119). All p values were compared to vehicle treated mice.
(§8) The effect of SL-11231 at 12.5 mg/kg for 5 consecutive days against DU-145 human prostate tumor xenograft in nude mice is shown in FIG. 8a. […] (Note that the value reported in Table 1 for SL-11231 versus DU-145 cells is for a single experiment, while the value reported in Table 2 is an average of multiple experiments.)
(§9) In addition, SL-11218 at a dose of 75 mg/kg i.p. for q1w×4 stabilized large (˜2000 mm^3) DU-145 tumor xenograft for 2 cycles with a 4 week gap between each cycle (FIG. 11a). Male athymic nude mice were given s.c. injections of 1×10^6 DU145 cells on Day 0. Beginning on Day 10, mice were given acidified water vehicle orally at 10 ml/kg dosing volume 1× weekly for 8 weeks. On D66 mice began weekly treatment of saline versus SL-11218 i.p. After cycle 1 there was a 27% reduction in tumor volume compared to vehicle treated controls. After cycle 2 there was a significant reduction of 64% with 15% drop in body weight which recovered between cycles. (Cycle 1, administration on days 66, 73, 80, 87; cycle 2, administration on days 115, 122, 129, 136.) BW p values were compared to untreated controls. At d87, p=0.005 for SL-11218. (For saline vehicle, n=9; at d 87 n=8; at d 101, n=4; for SL-11218 n=9; d 80 n=7; d 101 n=5). FIG. 11b indicates the effect of SL-11218 on animal bodyweight (saline vehicle, n=9, at d87, n=8; at d101 n=4; for SL-11218, n=9; at d80, n=7, at d101 n=5; p=0.015 at d98 and 0.001 at d132).

[12] = test system: BxPC-3 human pancreatic tumor xenograft; assay: Human pancreatic tumor xenograft in nude mice; type: in vivo; details: 10 days break
[13] = test system: DU-145 human prostate tumor xenograft; assay: DU-145 human prostate tumor xenograft in nude mice; type: in vivo
Procedure: as §7, §8

[14] = test system: large (~2000 mm^3) DU-145 tumor xenograft; assay: Large DU-145 tumor xenograft in nude mice; type: in vivo
Procedure: as §9

[15] = test system: MDA-MB-231 human breast cancer cell line; assay: MTT assay, MDA-MB-231 cells; type: cell-based; details: Table 2, 5 days of treatment, average of at least three experiments, read-out: ID50 MDA-MB-231
Procedure: as §3, with “Cells were lysed by incubating overnight with 100 μl lysis buffer (500 ml of the lysis buffer contains: 100 g lauryl sulfate (SDS), 250 ml of N,N-dimethylformamide, and 2 ml of glacial acetic acid, made up to volume with water; pH 4.8).” left out
as §4, §6

[16] = Table 1, DU145, SL-11231 value from a single experiment
[17] = Table 1, human prostate cancer cell line DuPro, read-out: ID50 DuPro
[18] = Table 1, PC-3, read-out: ID50 PC-3
[19] = Table 2, 5 days of treatment, average of at least three experiments
[20] = Table 2, 5 days of treatment, average of at least three experiments, read-out: ID50 DUPRO
[21] = Table 2, 5 days of treatment, average of at least three experiments, read-out: ID50 PC3

## CC(C)(C)NCCCCNCC1CC1CNCCCCNC(C)(C)C (racemic) [SL-11247]
[1]; [16]
  pIC50: 4.95
[2]; [17]
  pIC50: < 4.51
[3]; [18]
  pIC50: < 4.51

## CCNCCCCNCCCCNCCCCNCCCCNCC1CC1CNCCCCNCCCCNCCCCNCCCCNCC (racemic) [SL-11241]
[1]; [16]
  pIC50: 6.70
[2]; [17]
  pIC50: 6.47
[3]; [18]
  pIC50: 6.40

## CCNCCCCNCC1CC1CNCCCCNCC (racemic) [SL-11093]
[1]; [16]
  pIC50: 8.00
[2]; [17]
  pIC50: 6.70
[4]
  pIC50: 7.15
[5]; Table 1, LnCap
  pIC50: 6.68
[6]
  pIC50: < 4.51
[3]; [18]
  pIC50: 5.38

## CCNCCCCNCCCCNCCCCNCC [BE-4-4-4, ^1N,^14N-bisethylhomospermine]
[7]
  increase in lifespan as compared to control: ca. 6 fold
[8]
  maximum tolerated dose (MTD): ca. 6 mg/kg

## CCNCC1CC1CNCCCCNCC1CC1CNCC.Cl.Cl.Cl.Cl (mixture of isomers) [SL-11218]
[1]; [16]
  pIC50: 7.20
[1]; [19]
  pIC50: 7.22
[9]
  pIC50: 5.37
[9]; in words
  activity against MCF-7 breast cancer cells: some activity
[2]; [17]
  pIC50: 6.59
[2]; [20]
  pIC50: 6.59
[10]
  cytotoxicity by CFE assay: marked cytotoxicity
[11]; 75 mg/kg i.p. q1w×4, 3 cycles, 120 days, DU-145 xenograft
  bodyweight loss: without appreciable bodyweight loss
[11]; 75 mg/kg i.p. q1w×4, after cycle 2, large DU-145 xenograft, recovered between cycles
  drop in body weight: 15%
[12]; 50 mg/kg i.p. q1d×5, 2 cycles
  effect on human pancreatic tumor growth: effectively inhibit human pancreatic tumor growth
[13]; 50 mg/kg i.p. q1w×4, 3 cycles
  effect on tumor growth: temporarily arrested tumor growth
[13]; 75 mg/kg i.p. q1w×4, 3 cycles
  effect on tumor growth: arrested tumor growth throughout the treatment period of 120 days
[14]; 75 mg/kg i.p. q1w×4, 2 cycles
  effect on large tumor xenograft: stabilized
[14]; 75 mg/kg i.p. q1w×4, after cycle 1
  reduction in tumor volume compared to vehicle treated controls: 27%
[14]; 75 mg/kg i.p. q1w×4, after cycle 2
  reduction in tumor volume compared to vehicle treated controls: 64%
[15]
  pIC50: < 4.51
[3]; [18]
  pIC50: < 4.51
[3]; [21]
  pIC50: < 4.51

## CCNCCCCNCC1CC1CNCCCCNCC1CC1CNCCCCNCC (mixture of isomers) [SL-11231]
[1]; [16]
  pIC50: 7.10
[1]; [19]
  pIC50: 6.92
[9]
  pIC50: < 4.51
[2]; [17]
  pIC50: 6.42
[2]; [20]
  pIC50: 6.42
[11]; 12.5 mg/kg for 5 consecutive days, DU-145 xenograft
  effect on animal bodyweight: without appreciable effects on animal bodyweight
[12]; 12.5 mg/kg i.p. q1d×5, 2 cycles
  effect on human pancreatic tumor growth: effectively inhibit human pancreatic tumor growth
[13]; 12.5 mg/kg for 5 consecutive days
  effect on tumor growth: efficiently inhibits tumor growth
[5]; Table 1, LnCap
  pIC50: 6.82
[5]; [19]
  pIC50: 6.82
[15]
  pIC50: < 4.51
[3]; [18]
  pIC50: < 4.51
[3]; [21]
  pIC50: < 4.51

## CCNCC1CC1CNCC1CC1CNCC1CC1CNCC (mixture of isomers) [SL-11215]
[1]; [16]
  pIC50: 7.22
[2]; [17]
  pIC50: 6.20
[3]; [18]
  pIC50: < 4.51

## NCCCCNCC1CC1CNCCCCN (racemic) [SL-11245]
[1]; [16]
  pIC50: 6.21
[2]; [17]
  pIC50: < 4.51
[3]; [18]
  pIC50: < 4.51

## CCNCCCCNCC1CC1CNCCCCNCCCCNCC1CC1CNCCCCNCCCCNCC1CC1CNCCCCNCC (stereo not drawn) [SL-11232, 10,11-25,26-40,41-ter[(E)-1,2-cyclopropyl]-3,8,13,23,28,33,38,43,48-decaazapentacontane decahydrochloride]
[2]; [17]
  pIC50: 6.70
[3]; [18]
  pIC50: 6.52

## CCNCCCCNCC1CC1CNCCCCN (stereo not drawn) [SL-11242]
[3]; Homo sapiens, Table 1, PC-3, read-out: ID50 PC-3
  pIC50: < 4.51
